According to patent publication US20220046923A1, “HERBICIDAL CINNOLINIUM COMPOUNDS” (SYNGENTA CROP PROTECTION AG, priority 2018, published 2022):

Key:
Experiment in all cases: Post-emergence efficacy, glasshouse spray test
Type in all cases: in vivo
Setaria faberi (SETFA) = settings: Setaria faberi, post-emergence, 312 h, evaluated after 13 days, read-out: Control of weed species SETFA after post-emergence application (100=total damage to plant; 0=no damage to plant); for pest or weed control at 500 g/ha: application rate 500 g/Ha; for pest or weed control at 1000 g/ha: application rate 1000 g/Ha
Method in brief: (§1)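 Plants grown 14 days in glasshouse (24/16 °C day/night, 14 h light, 65% humidity), then sprayed post-emergence with formula (I) formulated in IF50 and diluted in 0.25% or 1% Empicol ESC70 + 1% ammonium sulphate. Damage scored visually 13 days after spraying (0 = none, 100 = total).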

[1] = tested on: Ipomoea hederacea (IPOHE); settings: Ipomoea hederacea, post-emergence, 312 h, evaluated after 13 days, read-out: Control of weed species IPOHE after post-emergence application (100=total damage to plant; 0=no damage to plant); for pest or weed control at 500 g/ha: application rate 500 g/Ha; for pest or weed control at 1000 g/ha: application rate 1000 g/Ha
Method in brief: as §1

[2] = tested on: Digitaria sanguinalis (DIGSA); settings: Digitaria sanguinalis, post-emergence, 312 h, evaluated after 13 days, read-out: Control of weed species DIGSA after post-emergence application (100=total damage to plant; 0=no damage to plant); for pest or weed control at 500 g/ha: application rate 500 g/Ha; for pest or weed control at 1000 g/ha: application rate 1000 g/Ha
Method in brief: as §1

[3] = tested on: Amaranthus palmeri (AMAPA); settings: Amaranthus palmeri, post-emergence, 312 h, evaluated after 13 days, read-out: Control of weed species AMAPA after post-emergence application (100=total damage to plant; 0=no damage to plant); for pest or weed control at 500 g/ha: application rate 500 g/Ha; for pest or weed control at 1000 g/ha: application rate 1000 g/Ha
Method in brief: as §1

[4] = tested on: Chenopodium album (CHEAL); settings: Chenopodium album, post-emergence, 312 h, evaluated after 13 days, read-out: Control of weed species CHEAL after post-emergence application (100=total damage to plant; 0=no damage to plant); for pest or weed control at 500 g/ha: application rate 500 g/Ha; for pest or weed control at 1000 g/ha: application rate 1000 g/Ha
Method in brief: as §1

Eleusine indica (ELEIN) = settings: Eleusine indica, post-emergence, 312 h, evaluated after 13 days, read-out: Control of weed species ELEIN after post-emergence application (100=total damage to plant; 0=no damage to plant); for pest or weed control at 500 g/ha: application rate 500 g/Ha; for pest or weed control at 1000 g/ha: application rate 1000 g/Ha
Method in brief: as §1

[5] = tested on: Euphorbia heterophylla (EPHHL); settings: Euphorbia heterophylla, post-emergence, 312 h, evaluated after 13 days, read-out: Control of weed species EPHHL after post-emergence application (100=total damage to plant; 0=no damage to plant); for pest or weed control at 500 g/ha: application rate 500 g/Ha; for pest or weed control at 1000 g/ha: application rate 1000 g/Ha
Method in brief: as §1

[6] = tested on: Echinochloa crus-galli (ECHCG); settings: Echinochloa crus-galli, post-emergence, 312 h, evaluated after 13 days, read-out: Control of weed species ECHCG after post-emergence application (100=total damage to plant; 0=no damage to plant); for pest or weed control at 500 g/ha: application rate 500 g/Ha; for pest or weed control at 1000 g/ha: application rate 1000 g/Ha
Method in brief: as §1

Lolium perenne (LOLPE) = settings: Lolium perenne, post-emergence, 312 h, evaluated after 13 days, read-out: Control of weed species LOLPE after post-emergence application (100=total damage to plant; 0=no damage to plant); for pest or weed control at 500 g/ha: application rate 500 g/Ha; for pest or weed control at 1000 g/ha: application rate 1000 g/Ha
Method in brief: as §1

| Compound | pest or weed control at 500 g/ha (Setaria faberi (SETFA)) [%] | pest or weed control at 500 g/ha [1] [%] | pest or weed control at 500 g/ha [2] [%] | pest or weed control at 500 g/ha [3] [%] | pest or weed control at 500 g/ha [4] [%] | pest or weed control at 500 g/ha (Eleusine indica (ELEIN)) [%] | pest or weed control at 500 g/ha [5] [%] | pest or weed control at 500 g/ha [6] [%] | pest or weed control at 500 g/ha (Lolium perenne (LOLPE)) [%] | pest or weed control at 1000 g/ha (Setaria faberi (SETFA)) [%] | pest or weed control at 1000 g/ha [1] [%] | pest or weed control at 1000 g/ha [2] [%] | pest or weed control at 1000 g/ha [3] [%] | pest or weed control at 1000 g/ha [4] [%] | pest or weed control at 1000 g/ha (Eleusine indica (ELEIN)) [%] | pest or weed control at 1000 g/ha [5] [%] | pest or weed control at 1000 g/ha [6] [%] | pest or weed control at 1000 g/ha (Lolium perenne (LOLPE)) [%] |
| --- | --- | --- | --- | --- | --- | --- | --- | --- | --- | --- | --- | --- | --- | --- | --- | --- | --- | --- |
| CC(C)(C[n+]1ccc2ccccc2n1)C(=O)O [Compound A113, 3-cinnolin-2-ium-2-yl-2,2-dimethyl-propanoic Acid 2,2,2-trifluoroacetate] | 20 | 10 | 30 | 10 | 10 | 30 | 10 | 40 | 20 | – | – | – | – | – | – | – | – | – |
| O=C(NC(C[n+]1ccc2ccccc2n1)C(=O)O)OCc1ccccc1 (stereo not drawn) [Compound A114] | 20 | 30 | 20 | 50 | 40 | 30 | 50 | 20 | 10 | – | – | – | – | – | – | – | – | – |
| CC(CC(=O)O)[n+]1ccc2ccccc2n1 (stereo not drawn) [Compound A115, 3-cinnolin-2-ium-2-ylbutanoic Acid 2,2,2-trifluoroacetate] | 30 | 20 | 60 | 100 | 40 | 60 | 20 | 20 | 20 | – | – | – | – | – | – | – | – | – |
| CC(C(=O)OC(C)(C)C)[n+]1ccc2ccccc2n1 (stereo not drawn) [Compound A116] | 30 | 10 | 40 | 60 | 50 | 30 | 30 | 30 | 20 | – | – | – | – | – | – | – | – | – |
| Cc1cc(C)c2n[n+](CCO)cc(C)c2c1 [Compound A117] | – | – | – | – | – | – | – | – | – | 30 | 20 | 20 | 30 | 20 | 60 | 20 | 20 | 10 |
| Cc1c[n+](CCO)nc2ccccc12 [Compound A118] | – | – | – | – | – | – | – | – | – | 10 | 10 | 20 | 10 | 10 | 20 | 20 | 10 | 10 |
| OCC[n+]1ccc2ccccc2n1 [Compound A119] | – | – | – | – | – | – | – | – | – | 50 | 50 | 50 | 90 | 90 | 40 | 80 | 20 | 20 |
| COC(=O)C(C)[n+]1ccc2ccccc2n1 (stereo not drawn) [Compound A120] | 50 | 20 | 50 | 100 | 90 | 60 | 60 | 30 | 0 | – | – | – | – | – | – | – | – | – |
| OCCC[n+]1ccc2ccccc2n1 [Compound A121] | – | – | – | – | – | – | – | – | – | 30 | 20 | 0 | 30 | 60 | 0 | 30 | 10 | 10 |
